Test results reported in patent publication US9090582B2, “Highly pure pentamycin” (Biolotus Biotechnology AG, priority 2008, dated 2015).

Type: physicochemical
Description: The stability of more than 95% pure polymorph A on exposure to air and heat is compared to the stability of amorphous pentamycin (containing more than 95% pure pentamycin) as follows:
Amorphous pentamycin is prepared by precipitation from a solution of more than 95% pure pentamycin in dimethylsulfoxide by adding acetonitrile, followed by filtering and drying the precipitate.
More than 95% pure polymorph A of pentamycin is prepared by crystallization from a solution of more than 95% pure pentamycin in dimethylsulfoxide by adding ethyl acetate, followed by filtering and drying the precipitate.
A sample of the thus obtained amorphous pentamycin and a sample of the thus obtained polymorph A are incubated in an open vessel about six days at 60° C. and additionally 2 weeks at 40° C. The process of degradation is monitored by HPLC, measuring the decrease of the purity relative to the inital state at zero time (t0) set on 100%. After the incubation the amount of degradation of amorphous pentamycin is 11% whereas the amount of degradation of polymorph A is only 1%.

Structure (SMILES): CCCCC[C@@H](O)[C@H]1C(=O)O[C@H](C)[C@@H](O)/C=C/C=C/C=C/C=C/C=C(\C)[C@@H](O)[C@H](O)[C@H](O)C[C@H](O)C[C@H](O)C[C@H](O)C[C@H](O)C[C@@H]1O [polymorph A, pentamycin]
- amount of degradation (decrease of the purity relative to the initial state at zero time t0 set on 100%): 1%

Structure (SMILES): CCCCC[C@@H](O)[C@H]1C(=O)O[C@H](C)[C@@H](O)/C=C/C=C/C=C/C=C/C=C(\C)[C@@H](O)[C@H](O)[C@H](O)C[C@H](O)C[C@H](O)C[C@H](O)C[C@H](O)C[C@@H]1O [amorphous pentamycin, pentamycin]
- amount of degradation (decrease of the purity relative to the initial state at zero time t0 set on 100%): 11%
